The subject of test [1] is A. fumigatus lung infection. As to the kind of experiment: microPET imaging in A. fumigatus lung infection small animal model. The test is classed as in vivo. As to conditions: Balb/c mice infected with A. fumigatus in the lung; 7.4 MBq tail vein; image 2 hours after injection (FIG. 4). The procedure:
The present inventors created a lung infection model by the following method. First, after preparing Balb/c mice 8 weeks old (female), 150 mg/kg 100 μl of cyclophosphamide was intraperitoneally injected 4 days before infection. After 3 days, 100 μl of 250 mg/kg of cortisone acetate was injected into the subcutaneous fat layer, and the mice were anesthetized after 24 hours. And then the lung infection model mice were prepared by the injection of 70 μl of A. fumigatus fungal solution (about […]) through the nasal cavity.
(§1) The present inventors acquired microPET images 2 hours after injecting the [^18F]FDS (7.4 MBq) according to the present invention into the tail vein of the infected mice, and the acquired images were reconstructed by using the 3D-ordered subset expectation maximization (3D-OSEM) method.
The present inventors confirmed the fungal selective uptake ability of [^18F]FDS of the present invention using small animal infection models. To this end, [^18F]FDS was administered intravenously to Balb/c mice infected with A. fumigatus in the lung prepared in Example 4, and microPET images were acquired and analyzed.

Test [2] deals with fungi. Briefly: In vitro uptake of [^18F]FDS, fungi compared with bacteria. The test is classed as cell-based. Particulars: in vitro experiment; fungi vs bacteria. The procedure:
(§2) The present inventors performed in vitro experiments on the strain cultured in Example 2 above. Specifically, each strain was prepared to be 1×10^8 per 1 mL of medium, and 1 mL was dispensed into tubes. The experiments were performed three times according to the experimental period, and 0.74 MBq of [^18F]FDS synthesized as described above was injected and incubated for 2 hours in the incubator. After 2 hours, each strain was divided into a filterable 1.5 mL centrifuge tube, and the fungi and medium were separated through centrifugation. After washing twice with phosphate buffer, the filtered fungi were collected and the intake was measured with a gamma counter.

Test [3] deals with Rhizopus sp. Briefly: In vitro uptake of [^18F]FDS by cultured strains (gamma counter). The test is classed as cell-based, Rhizopus arrhizus. As to conditions: 1×10^8 per mL, 0.74 MBq, incubated 2 hours (FIG. 3). The procedure:
(§3) The present inventors cultured the fungus using the following method. Specifically, Aspergillus fumigatus was smeared on potato dextrose agar medium (or YAG, yeast extract agar medium), and cultured at 30° C. for 2-3 days. Thereafter, the culture plate was washed with sterile physiological saline and Tween 20 [10 μl (1 drop)] and filtered with sterile gauze (or 40 μm-pore insertion filter). Then, the pellet was recovered using a centrifuge and the number of fungi was confirmed to prepare a bacterial solution of 1.5×10^9 conida/mL. Rhizopus arrhizus isolated from the patient was also cultured in the same way as A. fumigatus, prepared a fungal solution, and used for in vitro experiments. For Candida albicans, a strain isolated from the patient was also used, and cultured in SDA medium for 2-3 days. After recovering from the medium, a fungal solution was prepared.
(§4) The present inventors performed in vitro experiments on the strain cultured in Example 2 above. Specifically, each strain was prepared to be 1×10^8 per 1 mL of medium, and 1 mL was dispensed into tubes. The experiments were performed three times according to the experimental period, and 0.74 MBq of [^18F]FDS synthesized as described above was injected and incubated for 2 hours in the incubator. […] After washing twice with phosphate buffer, the filtered fungi were collected and the intake was measured with a gamma counter. […]

Test [4] has as its system A. fumigatus. The test is described as above. The test is classed as cell-based, Aspergillus fumigatus. Particulars: 1×10^8 per mL, 0.74 MBq, incubated 2 hours (FIG. 3). As for the experimental part:
as §3, §4

Test [5] deals with A. fumigatus muscle infection. As to the kind of experiment: microPET imaging in A. fumigatus muscle infection small animal model. The test is classed as in vivo. As to conditions: Balb/c mice, A. fumigatus forelimb muscle infection; 7.4 MBq tail vein; image 2 hours after injection; compared to the control group (FIGS. 5-7). The procedure: The present inventors produced a muscle infection model by the following method. First, after preparing Balb/c mice 8 weeks old (female), 150 mg/kg 100 μl of cyclophosphamide was intraperitoneally injected 4 days before infection. After 3 days, 100 μl of 250 mg/kg of cortisone acetate was injected into the subcutaneous fat layer, and the mice were anesthetized after 24 hours. And then the muscle infection model mice were prepared by the injection of 100 μl of A. fumigatus fungal solution (about 1.5×10^8 conidia) into the forelimb muscle of the mice.
as §1

Test [6] relates to C. albicans. Briefly: In vitro uptake of [^18F]FDS by cultured strains (gamma counter). Particulars: 1×10^8 per mL, 0.74 MBq, incubated 2 hours (FIG. 3). The test is classed as cell-based, Candida albicans. As for the experimental part: as §3, §4
Test [7] deals with gram-positive bacterial strains. As to the kind of experiment: In vitro uptake of [^18F]FDS by bacterial strains. The test is classed as cell-based. As to conditions: gram-positive bacterial strains (FIG. 3). The procedure:
as §2
(§5) The present inventors confirmed the uptake ability of [^18F]FDS of the present invention using fungal strain cultivation.

For test [8], the system named is gram-negative bacterial strains. As to the kind of experiment: In vitro uptake of [^18F]FDS by bacterial strains. Particulars: gram-negative bacterial strains (FIG. 3). The test is classed as cell-based. As for the experimental part:
as §2, §5

SMILES strings stand for the structures.

As for `OC[C@@H](O)[C@@H](O)[C@H](O)[C@@H]([18F])CO` [[^18F]FDS, 2-deoxy-2-[^18F]fluorosorbitol], the “uptake of [^18F]FDS in the lungs (microPET)” value in test [1] is “very high selective uptake”. The “degree of uptake of [^18F]FDS by fungi relative to bacterial uptake” value in test [2] is recorded as “more than 10 times”. Further, the “uptake of [^18F]FDS” value is “very high selective uptake” in test [3]; “very high selective uptake” in test [4]; “very high selective uptake” in test [6]; “did not show no uptake” in test [7]; “showed uptake” in test [8]. In addition, in test [5], the “uptake of [^18F]FDS at the muscle infection site (microPET)” value is “very high selective uptake”.

The values above are taken from US20220016273A1, “COMPOSITION FOR DIAGNOSIS OF FUNGAL INFECTION” (CNCURE BIOTECH INC., priority 2019, published 2022).
